Where two headings read alike, the source gives them in different places.
Columns and labels:
CDK9/cyclin T1 [1] = target: T1, CDK9/cyclin T1 (Homo sapiens, UniProt P50750); assay: NanoBRET target engagement intracellular kinase assay in HEK293 cells; type: cell-based; settings: transfected HEK293 cells; 10-dose, 3-fold from 10 μM, duplicate
Protocol: (§1) Compound 1-3 efficacy was assessed in several in vitro assays. A nanoBrET assay was used to measure intracellular kinase activity of I-3 with CDK2, CDK1, CDK7 and CDK9. Briefly, HEK293 cells were transfected with CDK2, CDK1, CDK7 and CDK9. The transfected cells were treated in duplicate with test compound I-3 (starting at 10 μM, 10-dose with 3-fold dilution) and target engagement was measured by NanoBRET assay (FIG. 2A and Table 4). Cellular thermal shift assay (CETSA) was also performed to evaluate drug target interaction in the cells. The CETSA method is built upon two concepts: cellular thermal shift and isothermal dose-response. The cellular thermal shift assay is based on the established fact that proteins that are complexed to a ligand become more resistant to heat induced unfolding. Isothermal dose response is used to determine a compound's potency in binding the target by measuring the thermal stability of the target treated with various concentrations of compound at a fixed temperature. Briefly, cell lysate was treated with I-3 (starting at 300 nM, 10-dose with 3-fold dilution) and incubated for 1 hour and cell lysates were then subjected to predetermined thermal aggregation temperature (58° C.) for another 20 min. Western blot was performed to determine the levels of target protein bound to I-3 (FIG. 2B).

CDK7/cyclin H [2] = target: T2, CDK7/cyclin H (Homo sapiens, UniProt P50613); assay: as above; type: cell-based; settings: transfected HEK293 cells; 10-dose, 3-fold from 10 μM, duplicate
T2 sequence (P50613 whole entry): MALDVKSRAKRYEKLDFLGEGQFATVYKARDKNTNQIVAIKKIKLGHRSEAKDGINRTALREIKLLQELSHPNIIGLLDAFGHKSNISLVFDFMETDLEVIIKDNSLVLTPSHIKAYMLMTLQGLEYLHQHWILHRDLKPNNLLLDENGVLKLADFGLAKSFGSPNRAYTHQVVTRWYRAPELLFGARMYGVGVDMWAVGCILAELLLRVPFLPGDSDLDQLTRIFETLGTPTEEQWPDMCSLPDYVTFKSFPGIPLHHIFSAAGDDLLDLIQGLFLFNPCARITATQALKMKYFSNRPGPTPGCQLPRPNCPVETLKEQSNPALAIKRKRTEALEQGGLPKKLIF
T2 sequence (P51946 whole entry partner): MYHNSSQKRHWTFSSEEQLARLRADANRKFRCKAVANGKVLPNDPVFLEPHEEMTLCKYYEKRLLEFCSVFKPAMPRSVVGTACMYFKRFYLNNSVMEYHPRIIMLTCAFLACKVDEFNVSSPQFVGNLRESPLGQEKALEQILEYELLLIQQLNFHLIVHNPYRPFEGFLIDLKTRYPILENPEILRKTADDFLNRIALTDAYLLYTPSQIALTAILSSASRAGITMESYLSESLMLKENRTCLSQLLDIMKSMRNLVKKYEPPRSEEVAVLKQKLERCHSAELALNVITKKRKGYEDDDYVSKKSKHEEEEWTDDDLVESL
T2 sequence (P51948 whole entry partner): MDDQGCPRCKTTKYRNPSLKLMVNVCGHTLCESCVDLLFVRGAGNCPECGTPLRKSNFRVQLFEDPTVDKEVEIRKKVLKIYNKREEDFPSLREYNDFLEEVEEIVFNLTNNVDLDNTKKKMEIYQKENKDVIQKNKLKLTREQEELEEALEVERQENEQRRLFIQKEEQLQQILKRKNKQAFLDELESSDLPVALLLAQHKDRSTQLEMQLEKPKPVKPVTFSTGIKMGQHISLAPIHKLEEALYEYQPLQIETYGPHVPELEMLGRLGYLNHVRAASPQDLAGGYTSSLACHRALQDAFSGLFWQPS
Protocol: as §1

CDK9/cyclin T1 [3] = target: T1, CDK9/cyclin T1; assay: Radioisotope-based protein kinase assay; type: biochemical; settings: 10 μM ATP, 3-fold dilution from 10 μM
Protocol: (§2) A series of test compounds were selected for initial screening against CDK isoforms. Protein kinase assays were performed with gold standard radioisotope-based assay formats to measuring enzyme activity remaining in presence and absence of inhibitor.

CDK7/cyclin H [4] = target: T2, CDK7/cyclin H; assay: Radioisotope-based protein kinase assay; type: biochemical; settings: 10 μM ATP, 3-fold dilution from 10 μM
Protocol: as §2

CDK1/cyclin A = CDK1/cyclin A (Homo sapiens, UniProt P06493); assay: Radioisotope-based protein kinase assay; type: biochemical; settings: 10 μM ATP, 3-fold dilution from 10 μM
Protocol: as §2

CDK2/cyclin A = CDK2/cyclin A (Homo sapiens, UniProt P24941); assay: Radioisotope-based protein kinase assay; type: biochemical; settings: 10 μM ATP, 3-fold dilution from 10 μM
Protocol: as §2

CDK1/cyclin B = CDK1/cyclin B (Homo sapiens, UniProt P06493); assay: Radioisotope-based protein kinase assay; type: biochemical; settings: 10 μM ATP, 3-fold dilution from 10 μM
CDK1/cyclin B, sequence (P06493 whole entry): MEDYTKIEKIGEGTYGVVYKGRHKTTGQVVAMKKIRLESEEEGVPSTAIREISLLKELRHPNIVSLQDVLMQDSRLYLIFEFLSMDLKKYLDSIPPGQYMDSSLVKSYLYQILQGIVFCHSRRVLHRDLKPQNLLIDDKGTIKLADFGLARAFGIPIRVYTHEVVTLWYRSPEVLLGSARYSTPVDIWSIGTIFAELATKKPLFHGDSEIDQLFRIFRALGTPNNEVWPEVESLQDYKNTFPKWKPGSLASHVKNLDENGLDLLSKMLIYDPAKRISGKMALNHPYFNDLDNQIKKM
CDK1/cyclin B, sequence (P14635 whole entry partner): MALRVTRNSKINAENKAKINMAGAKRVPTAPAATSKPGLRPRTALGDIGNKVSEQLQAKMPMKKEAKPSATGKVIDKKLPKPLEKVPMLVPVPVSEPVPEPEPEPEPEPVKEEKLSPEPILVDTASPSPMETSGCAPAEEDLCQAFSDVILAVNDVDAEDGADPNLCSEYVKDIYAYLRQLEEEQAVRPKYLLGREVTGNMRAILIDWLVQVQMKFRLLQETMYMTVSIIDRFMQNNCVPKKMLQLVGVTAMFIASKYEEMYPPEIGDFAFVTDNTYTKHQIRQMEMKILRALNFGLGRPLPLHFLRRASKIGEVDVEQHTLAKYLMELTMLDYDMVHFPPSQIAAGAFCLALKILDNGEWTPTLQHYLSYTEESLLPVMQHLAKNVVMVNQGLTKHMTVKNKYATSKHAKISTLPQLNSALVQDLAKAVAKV
Protocol: as §2

CDK6/cyclin D1 = CDK6/cyclin D1 (Homo sapiens, UniProt Q00534); assay: Radioisotope-based protein kinase assay; type: biochemical; settings: 10 μM ATP, 3-fold dilution from 10 μM
CDK6/cyclin D1, sequence (Q00534 whole entry): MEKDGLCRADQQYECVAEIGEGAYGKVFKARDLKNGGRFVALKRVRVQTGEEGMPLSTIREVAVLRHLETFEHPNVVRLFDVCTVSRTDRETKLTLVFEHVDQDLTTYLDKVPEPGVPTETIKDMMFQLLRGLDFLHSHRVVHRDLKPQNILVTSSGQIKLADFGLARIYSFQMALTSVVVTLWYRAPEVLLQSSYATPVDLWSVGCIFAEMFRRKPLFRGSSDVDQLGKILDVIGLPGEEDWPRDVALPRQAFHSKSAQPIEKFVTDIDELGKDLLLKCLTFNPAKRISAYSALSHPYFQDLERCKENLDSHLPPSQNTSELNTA
CDK6/cyclin D1, sequence (P24385 whole entry partner): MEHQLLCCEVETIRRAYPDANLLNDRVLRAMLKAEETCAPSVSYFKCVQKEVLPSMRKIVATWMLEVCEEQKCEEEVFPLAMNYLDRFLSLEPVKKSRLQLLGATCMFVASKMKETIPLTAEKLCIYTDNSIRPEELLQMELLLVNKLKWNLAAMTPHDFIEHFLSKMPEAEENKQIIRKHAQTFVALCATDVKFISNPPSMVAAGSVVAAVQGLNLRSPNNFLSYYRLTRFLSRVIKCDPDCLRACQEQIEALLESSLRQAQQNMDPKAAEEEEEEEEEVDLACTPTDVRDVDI
Protocol: as §2

CDK4/cyclin D1 = CDK4/cyclin D1 (Homo sapiens, UniProt P11802); assay: Radioisotope-based protein kinase assay; type: biochemical; settings: 10 μM ATP, 3-fold dilution from 10 μM
CDK4/cyclin D1, sequence (P11802 whole entry): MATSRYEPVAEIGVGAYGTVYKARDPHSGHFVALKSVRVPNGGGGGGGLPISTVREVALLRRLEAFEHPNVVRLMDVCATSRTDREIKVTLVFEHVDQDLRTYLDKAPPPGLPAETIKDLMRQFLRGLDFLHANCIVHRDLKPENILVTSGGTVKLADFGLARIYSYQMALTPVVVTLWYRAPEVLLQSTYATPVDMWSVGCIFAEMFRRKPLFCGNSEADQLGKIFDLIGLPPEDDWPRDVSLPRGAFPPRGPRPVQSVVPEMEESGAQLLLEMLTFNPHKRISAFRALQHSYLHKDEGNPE
CDK4/cyclin D1, sequence (P24385 whole entry partner): as the sequence (P24385 whole entry partner) above
Protocol: as §2

CDK2/cyclin E = CDK2/cyclin E (Homo sapiens, UniProt P24941); assay: Radioisotope-based protein kinase assay; type: biochemical; settings: 10 μM ATP, 3-fold dilution from 10 μM
Protocol: as §2

CDK5/p25 = CDK5/p25 (Homo sapiens, UniProt Q00535); assay: Radioisotope-based protein kinase assay; type: biochemical; settings: Table 1; 10 μM ATP
CDK5/p25, sequence (Q00535 whole entry): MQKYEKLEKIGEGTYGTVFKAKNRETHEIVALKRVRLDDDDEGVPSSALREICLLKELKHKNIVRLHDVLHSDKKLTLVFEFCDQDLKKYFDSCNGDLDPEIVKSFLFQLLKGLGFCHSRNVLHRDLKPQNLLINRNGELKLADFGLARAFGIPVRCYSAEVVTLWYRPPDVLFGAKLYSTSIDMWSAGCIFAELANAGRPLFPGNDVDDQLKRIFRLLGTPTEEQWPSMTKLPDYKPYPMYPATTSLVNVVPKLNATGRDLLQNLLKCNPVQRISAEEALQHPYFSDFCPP
CDK5/p25, sequence (Q15078 99-307 partner limits assumed): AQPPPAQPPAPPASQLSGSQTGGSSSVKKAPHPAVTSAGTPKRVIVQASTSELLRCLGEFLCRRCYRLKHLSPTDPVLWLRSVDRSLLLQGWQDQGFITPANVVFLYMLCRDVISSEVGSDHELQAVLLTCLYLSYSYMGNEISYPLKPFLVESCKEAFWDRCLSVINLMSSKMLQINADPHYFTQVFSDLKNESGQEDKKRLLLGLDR
Protocol: as §2

[5] = tested on: pCDK2 and phospho-RB in MDA-MB-468 cells; assay: Western blot of pCDK2 and phospho-Rb in MDA-MB-468 cells; type: cell-based; settings: increasing amounts
Protocol: FIGS. 3A-3B show target protein inhibition in Basal like TNBC cells. FIG. 3A is a Western blot showing pCDK2 levels in MDA-MB-468 cells with increasing dose of I-3 (CD11). FIG. 3B is a Western blot showing Phospho-Rb levels in MDA-MB-468 cells with increasing dose of I-3 (CD11).
as §1, with “Briefly, cell lysate was treated with I-3 (starting at 300 nM, 10-dose with 3-fold dilution) and incubated for 1 hour and cell lysates were then subjected to predetermined thermal aggregation temperature (58° C.) for another 20 min. Western blot was performed to determine the levels of target protein bound to I-3 (FIG. 2B).” left out

CDK5/p35 = CDK5/p35 (Homo sapiens, UniProt Q00535); assay: Radioisotope-based protein kinase assay; type: biochemical; settings: Table 2
CDK5/p35, sequence (Q00535 whole entry): as the sequence (Q00535 whole entry) above
CDK5/p35, sequence (Q15078 whole entry partner): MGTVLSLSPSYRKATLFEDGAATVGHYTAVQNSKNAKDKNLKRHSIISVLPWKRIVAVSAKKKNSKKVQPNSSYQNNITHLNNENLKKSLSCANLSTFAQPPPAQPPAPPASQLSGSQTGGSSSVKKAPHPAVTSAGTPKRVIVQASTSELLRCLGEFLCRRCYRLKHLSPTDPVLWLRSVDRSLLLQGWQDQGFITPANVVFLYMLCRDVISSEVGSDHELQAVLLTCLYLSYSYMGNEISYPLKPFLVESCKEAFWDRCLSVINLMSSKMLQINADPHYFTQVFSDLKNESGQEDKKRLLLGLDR
Protocol: as §2
The activity of compound I-3 was compared to that of a panel of CDKs and their respective binding partners (Tables 2 and 3).

[6] = Snapshot plasma pharmacokinetics in mice; type: in vivo; settings: mouse, in vivo; for AUC(0-inf): AUCinf
Protocol: Evaluation of pharmacokinetic (PK) parameters and efficacy of I-3 in a xenograft model was carried out in mice. […] Briefly, mice were treated with 5 mg/kg of 1-3 or merioline-3. Plasma was then collected at different time points and measured for drug concentration. […] PK parameters of I-3 was also compared to a panel of CDK inhibitors (Table 13). […] Likewise, Ribociclib has a better Cmax than I-3, but it is primarily a CDK4/6 inhibitor.

[7] = tested on: caspase 3/7 in MDA-MB-468 cells; assay: Caspase Glo 3/7 activity assay in MDA-MB-468 cells; type: cell-based; settings: 24 hours
Protocol: Further anti-proliferative effect of 1-3 was evaluated in the TNBC cell line MDA-MB-468 based on biomarker (CDK2) inhibition. […] The mechanistic cell cycle block is aligned with biomarker. In addition, Caspase Glo 3/7 activation was tested to confirm the sub-G1 (apoptotic) arrest in cell cycle.

MCF-10A = assay: Cell viability in breast cell lines; type: cell-based; settings: Homo sapiens, 72 hours
From the text: Tables 5 and 6 show assessment of in vitro efficacy of I-3 in a panel of breast cancer cell lines.

[8] = Absolute bioavailability / PK after IV and PO dosing in CD-1 male mice; type: in vivo; settings: for Vd / AUC(0-t) / Tmax: male
Protocol: Absolute bioavailability of I-3 was assessed after IV and PO dosing in CD-1 male mice. Mean plasma concentration (FIG. 6) and PK parameters (Table 12) are shown. […] Plasma concentrations were observed up to 8 hours, and plasma concentrations were not observed at 24 hour time point. […] This is approximately 50% of the hepatic blood flow ([…]) in mice.

[9] = CD-1, mouse, plasma, male CD1 mice, PO 10 mg/kg

T1 sequence (P50750 whole entry): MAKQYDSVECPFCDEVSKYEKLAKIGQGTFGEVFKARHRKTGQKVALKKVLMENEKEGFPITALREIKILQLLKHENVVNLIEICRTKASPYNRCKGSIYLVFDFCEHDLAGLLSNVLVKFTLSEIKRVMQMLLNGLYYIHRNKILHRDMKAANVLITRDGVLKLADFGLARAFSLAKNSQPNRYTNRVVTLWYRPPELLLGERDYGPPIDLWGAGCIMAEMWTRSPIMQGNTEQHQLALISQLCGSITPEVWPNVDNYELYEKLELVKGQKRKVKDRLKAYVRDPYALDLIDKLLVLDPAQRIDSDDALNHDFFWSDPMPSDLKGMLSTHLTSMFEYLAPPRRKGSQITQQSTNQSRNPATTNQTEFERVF
T1 sequence (O60563 whole entry partner): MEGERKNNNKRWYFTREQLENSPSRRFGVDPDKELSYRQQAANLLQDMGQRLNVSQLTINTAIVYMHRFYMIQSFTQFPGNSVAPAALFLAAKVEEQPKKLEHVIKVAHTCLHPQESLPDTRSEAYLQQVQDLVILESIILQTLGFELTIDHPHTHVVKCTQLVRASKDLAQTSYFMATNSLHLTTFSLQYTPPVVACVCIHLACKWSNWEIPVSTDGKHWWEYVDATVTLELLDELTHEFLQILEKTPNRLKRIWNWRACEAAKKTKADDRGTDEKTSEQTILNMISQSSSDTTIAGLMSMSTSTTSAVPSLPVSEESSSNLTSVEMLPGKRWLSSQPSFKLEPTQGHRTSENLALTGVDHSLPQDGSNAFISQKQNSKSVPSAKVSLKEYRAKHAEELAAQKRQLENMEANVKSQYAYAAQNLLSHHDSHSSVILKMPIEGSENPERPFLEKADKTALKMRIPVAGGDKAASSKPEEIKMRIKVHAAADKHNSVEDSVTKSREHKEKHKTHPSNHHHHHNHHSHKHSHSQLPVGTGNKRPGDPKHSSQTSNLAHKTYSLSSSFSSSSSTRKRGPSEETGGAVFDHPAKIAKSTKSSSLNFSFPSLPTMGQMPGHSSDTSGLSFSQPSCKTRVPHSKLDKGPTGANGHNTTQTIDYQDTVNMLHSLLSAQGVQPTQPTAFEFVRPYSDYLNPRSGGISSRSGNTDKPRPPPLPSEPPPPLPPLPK

Nc1nccc(-c2c[nH]c3nccc(Oc4cccc(F)c4)c23)n1 [I-3, 4-(4-(3-fluorophenoxy)-1H-pyrrolo[2,3-b]pyridin-3-yl)pyrimidin-2-amine]
IC50 (CDK9/cyclin T1 [1]): 0.702 µM | IC50 (CDK7/cyclin H [2]): 0.403 µM | IC50 (CDK9/cyclin T1 [3]): 0.007 µM | IC50 (CDK7/cyclin H [4]): 0.018 µM | IC50 (CDK1/cyclin A): 0.006 µM | IC50 (CDK2/cyclin A): 0.004 µM | IC50 (CDK1/cyclin B): 0.008 µM | IC50 (CDK6/cyclin D1): 0.285 µM | IC50 (CDK4/cyclin D1): 0.414 µM | IC50 (CDK2/cyclin E): 0.004 µM | IC50 (CDK5/p25): 0.008 µM | pCDK2 levels [5]: reduced | phosphor-RB levels [5]: reduced | IC50 (CDK5/p35): 0.008 µM | Tmax [6]: 3.1 h | AUC(0-inf) [6]: 1870 ng·h/mL | Cmax ([6]; Cmax): 483 ng/mL | Tmax ([6]; iv, 5 mg/kg): 0.0833 h | half-life ([6]; iv, 5 mg/kg): 1.15 h | AUC(0-inf) ([6]; iv, 5 mg/kg): 3700 ng·h/mL | Cmax ([6]; iv, 5 mg/kg, Cmax): 5080 ng/mL | Cmax ([6]; po, 5 mg/kg): 178 ng/mL | Tmax ([6]; po, 5 mg/kg): 0.5 h | half-life ([6]; po, 5 mg/kg): 3.1 h | AUC(0-inf) ([6]; po, 5 mg/kg): 1480 ng·h/mL | Caspase 3/7 activation [7]: clear activation of caspase 3/7 | IC50 ([7]; Homo sapiens): 0.652 µM | IC50 (MCF-10A; MCF-10A (Normal breast-like), read-out: CTG and Alamar Blue Assay IC50): 2.07 µM | IC50 (MCF-10A; MCF-10A, Table 6, read-out: Cell viability by CellTiter Glo IC50): 2.07 µM | half-life ([8]; CD-1, mouse, plasma, male CD1 mice, IV 1 mg/kg): 3.4 ± 0.7 h | clearance ([8]; CD-1, mouse, plasma, male CD1 mice, IV 1 mg/kg, read-out: CLp (converted)): 41.7 mL/min/kg | AUC(0-inf) [8, 9]: 6570 ± 542 ng·h/mL | Cmax [8, 9]: 2500 ± 55.5 ng/mL | Plasma clearance ([8]; CD-1 male mice, IV): 41.7 mL/min/kg | Plasma clearance as share of hepatic blood flow (5.4 L/kg) in mice ([8]; CD-1 male mice, IV): approximately 50% | Volume of distribution compared to total body water content (0.7 L/kg) ([8]; CD-1 male mice, IV): 17 fold | Time up to which plasma concentrations were observed ([8]; CD-1 male mice, after IV administration, not observed at 24 hour): up to 8 hours | Bioavailability (% F) ([8]; male CD1 mice, PO 10 mg/kg vs IV 1 mg/kg): 147.5 ± 14.8 % F | Vd ([8]; CD-1, mouse, plasma, iv, 1 mg/kg, CD-1 male mice, IV, read-out: Volume of distribution): 12.5 L/kg | AUC(0-t) ([8]; CD-1, mouse, plasma, iv, 1 mg/kg, male CD1 mice, IV 1 mg/kg): 384 ± 98.9 ng·h/mL | Vd ([8]; CD-1, mouse, plasma, iv, 1 mg/kg, male CD1 mice, IV 1 mg/kg, read-out: Vdss): 6.8 ± 2.4 L/kg | AUC(0-t) ([8]; CD-1, mouse, plasma, po, 10 mg/kg, CD-1 male mice, PO 10 mg/kg): 5670 ng·h/mL | Tmax ([8]; CD-1, mouse, plasma, po, 10 mg/kg, CD-1 male mice, PO 10 mg/kg, read-out: Tmax (oral absorption)): 0.5 to 1 h | AUC(0-t) ([8]; CD-1, mouse, plasma, po, 10 mg/kg, male CD1 mice, PO 10 mg/kg): 5670 ± 569 ng·h/mL | Tmax ([8]; CD-1, mouse, plasma, po, 10 mg/kg, male CD1 mice, PO 10 mg/kg, read-out: Tmax): 1 ± 0.3 h | bioavailability ([8]; mouse, plasma, CD-1 male mice, PO 10 mg/kg, read-out: Oral suspension bioavailability (% F)): > 100%

— US20240261297A1, “ANTI-CDK INHIBITORS FOR CANCER TREATMENT” (St. John's Cancer Institute, priority 2021, published 2024)
